Assay results as given in patent publication US6953786B2, “Compositions comprising plant-derived polyphenolic compounds and inhibitors of reactive oxygen species and methods of using thereof” (The Regents of the University of California, priority 2002, dated 2005).
“Also recorded” adds a separate entry of the source.

Legend:
[1] = system: Mia PACA-2 cells; assay: Intracellular ROS (H2O2) by flow cytometry of DCF-labeled cells; type: cell-based, human; settings: Mia PACA-2, 72 hours, serum or IGF-1; trans-resveratrol 100 μM, genistein 100 μM, DPI 15 μM, tiron 10 mM
Method: To determine the effect of serum in cancer cells, the following assay was conducted. Mia PACA-2 pancreatic cancer cells were cultured for 72 hours in the absence and presence of serum (15% FBS) or 100 ng/ml insulin growth factor-1 (IGF-1). Dichloroflyorescein diocetate (DCF-DA) was used to label the cells. Intracellular H2O2 was measured by flow cytometry of DCF-labeled cells. Intracellular ROS was measured using oxidation-sensitive cell-permeable fluorescent probe, dichlorofluorescein diacetate (DCF-DA) to measure H2O2. See Royall J A, and Ischiropoulos H. (1993) Arch. Biochem. Biophys. 302:348-355. To measure ROS, cells were collected after incubation, washed with PBS, and incubated for 15 minutes with […] DCF-DA. Samples were analyzed by flow cytometry. The amount of DCF-DA fluorescence correlated with the amount of ROS in the cells To determine the effects of serum, IGF-1, polyphenols and inhibitors of ROS on ROS production in cancer cells, the following assay was conducted. Mia PACA-2 cells were cultured for 72 hours in the presence of serum or IGF-1 with or without antioxidants, intracellular superoxide scavenger tiron (10 mM) or NADPH oxidase inhibitor, diphenylene iodonium (DPI, 15 μM) and trans-resveratrol (100 μM), genistein (100 μM), or a combination of polyphenolic compounds and antioxidants. Intracellular H2O2 was measured by flow cytometry of DCF-labeled cells. Mia PACA-2 cells and BSp73AS cells were cultured in Dulbecco's Modified Eagle's Medium supplemented with 10% heat inactivated FBS, penicillin G (100 U/ml) and streptomycin ([…]) in a humidified atmosphere comprising 5% (v/v) CO2. When the cells were 90% confluent they were detached, washed with alternating centrifugation and resuspension, plated and incubated in the same media with or without FBS or IGF-1 and with or without a given polyphenolic compound and with or without a given ROS inhibitor.

[2] = system: PARP; assay: PARP proteolysis (Western blot); type: cell-based, human; settings: Mia PACA-2, 24 hours, 100 μM
Method: BSp73AS cells were cultured for 6 hours and Mia PACA-2 cells were cultured for 24 hours in the presence or absence of 100 μM of each rutin, quercetin or trans-resveratrol and with or without 50 μM of each […]. The cells were washed twice with PBS and lysed by incubating for 20 minutes at 4° C. in lysis buffer comprising 0.15 M NaCl, 50 mM Tris (pH 7.2), 1% deoxycholic acid (wt/vol), 1% Triton X-100 (wt/vol), 0.1% […] (wt/vol) and 1 mM PMSF, as well as 5 μg/ml each of protease inhibitors, pepstatin, leupeptin, chymostatin, antipain, and aprotinin. Then the cell lysates were centrifuged for 20 minutes at 15,000 g at 4° C. The supernatants were separated by 4-20% SDS-PAGE for 2 hours at 120 V using precast Tris-glycine gels and a Mini-Cell gel apparatus (Novex, San Diego, Calif.). Separated proteins were electrophoretically transferred to a nitrocellulose membrane for 2 hours at 30 V using a Novex Blot Module (Novex, San Diego, Calif.). Nonspecific binding was blocked by 1 hour incubation of nitrocellulose membranes in 5% (wt/vol) nonfat dry milk in Tris-buffered saline (TBS; pH 7.5). Blots were then incubated overnight at 4° C. with rabbit polyclonal antibody against poly (ADP-ribose) polymerase (PARP) (Santa Cruz Biotechnology, Santa Cruz, Calif.) (1;3,000) in an antibody buffer comprising (1% (wt/vol) non-fat dry milk in TTBS (0.05% vol/vol) Tween-20 in TBS), washed 3 times with TTBS and finally incubated for 1 hour with a peroxidase-labeled secondary antibody in the antibody buffer. Blots were developed for visualization using ECL detection kit. To test for equal protein loading, the blots were stripped and re-probed with an antibody against tubulin. When processing of a protein was measured, a decrease in unprocessed full-length form was measured concomitantly with the increase in the cleaved, active form. The experiment was repeated 3 times with similar results.

[3] = system: Mia PACA-2 cells; assay: Annexin staining (flow cytometry); type: cell-based, human; settings: Mia PACA-2, 72 hours, 0-100 μM, no serum
Method: BSp73AS cells are derived from a rat pancreatic carcinoma and both Mia PACA-2 and BSp73AS cells have mutated p53 and express K-ras. Human pancreatic carcinoma cell line Mia PACA-2 and rat pancreatic carcinoma BSp73AS were cultured in Dulbecco's Modified Eagle's Medium supplemented with 10% heat inactivated FBS, penicillin G (100 U/ml) and streptomycin ([…]) in a humidified atmosphere comprising 5% (v/v) CO2. When cells were 90% confluent they were detached, washed with alternating centrifugation and resuspension, plated and incubated in the same media without FBS and with the indicated concentrations of polyphenolic compounds or vehicle for up to 96 hours. Oligonucleotide DNA fragmentation, annexin staining, and PARP proteolysis assays were conducted as follows:
Mia PACA-2 cells were cultured for 72 hours in the presence of 0, 12, 24, 50, and 100 μM rutin, quercetin, or trans-resveratrol. About 1×10^6 cells as determined with a hemocytometer were analyzed for annexin-V binding using an Annexin V-FLUOS Staining Kit (Boehringer Mannheim, Germany). […] Cells were analyzed on a FACScan flow cytometer (Becton Dickinson Immunocytometry System, San Jose, Calif.) equipped with a […] air-cooled 488 nm argon-ion laser. […]

[4] = system: caspase-3; assay: Caspase-3 activity, fluorogenic assay with DEVD-AMC; type: cell-based, rat; settings: BSp73AS, up to 6 hours, 100 μM, no serum (FIGS. 6B, 6C)
Method: To determine whether a polyphenolic compound activates caspase-3 activity in a time-dependent manner, the following assay was conducted. BSp73AS cells were cultured for 0, 1, 3, and 6 hours and Mia PACA-2 cells were cultured in the absence of serum or growth factors for 0, 1, 4, 6, and 24 hours in the presence of 100 μM or quercetin, trans-resveratrol, rutin, or control. Caspase-3 activity was measured in cell lysates with a fluorogenic assay using DEVD-AMC as a substrate. The results were normalized to the DEVDase activity in untreated cells.
To determine whether quercetin activates caspase-3 activity in a dose-dependent manner, the following assay was conducted. Cells were cultured for 6 hours in the absence of serum or growth factors in the presence of 0, 10, 20, 50, and 100 μM of quercetin. Caspase-3 activity was measured in cell lysates with a fluorogenic assay using DEVD-AMC as a substrate. The results were normalized to the DEVDase activity in untreated cells.

| Structure (SMILES) | ROS production (intracellular H2O2, DCF fluorescence) [1] | PARP cleavage [2] | annexin staining (apoptosis) [3] | caspase-3 activation [4] |
| --- | --- | --- | --- | --- |
| O=c1c(-c2ccc(O)cc2)coc2cc(O)cc(O)c12 [genistein] | small increase in ROS production | – | – | – |
| O=c1c(O)c(-c2ccc(O)c(O)c2)oc2cc(O)cc(O)c12 [quercetin] | – | cleaved to its activated form | increase annexin staining; also recorded: more potent in causing apoptosis than trans-resveratrol | caused caspase-3 activation |
| Oc1ccc(/C=C/c2cc(O)cc(O)c2)cc1 [trans-resveratrol] | small increase in ROS production | cleaved to its activated form | increase annexin staining | caused caspase-3 activation |
